Test results: patent US10392404B2, “Compounds and compositions as kinase inhibitors” (NOVARTIS AG, priority 2014, dated 2019)

How the values were obtained:
C-RAF = biological target: T1, C-RAF (Homo sapiens, UniProt P04049, Y340E/Y341E); experiment: In vitro Raf activity determination (Alpha Screen, biotinylated kinase-dead MEK1 substrate), C-Raf; assay type: biochemical; settings: c-Raf approximately 4 nM; ATP 1 μM; pre-incubation 60 minutes; reaction 1 hour at room temperature
T1 construct: His tag (implied by nickel chromatography) (cleaved yes); StrepII tag (cleaved yes); made in house; host or cells: Sf9 insect cells (baculovirus), CRAF and h14-3-3 zeta co-expressed; MEK1 substrate from E. coli
T1 sequence (P04049 whole entry Y340E/Y341E): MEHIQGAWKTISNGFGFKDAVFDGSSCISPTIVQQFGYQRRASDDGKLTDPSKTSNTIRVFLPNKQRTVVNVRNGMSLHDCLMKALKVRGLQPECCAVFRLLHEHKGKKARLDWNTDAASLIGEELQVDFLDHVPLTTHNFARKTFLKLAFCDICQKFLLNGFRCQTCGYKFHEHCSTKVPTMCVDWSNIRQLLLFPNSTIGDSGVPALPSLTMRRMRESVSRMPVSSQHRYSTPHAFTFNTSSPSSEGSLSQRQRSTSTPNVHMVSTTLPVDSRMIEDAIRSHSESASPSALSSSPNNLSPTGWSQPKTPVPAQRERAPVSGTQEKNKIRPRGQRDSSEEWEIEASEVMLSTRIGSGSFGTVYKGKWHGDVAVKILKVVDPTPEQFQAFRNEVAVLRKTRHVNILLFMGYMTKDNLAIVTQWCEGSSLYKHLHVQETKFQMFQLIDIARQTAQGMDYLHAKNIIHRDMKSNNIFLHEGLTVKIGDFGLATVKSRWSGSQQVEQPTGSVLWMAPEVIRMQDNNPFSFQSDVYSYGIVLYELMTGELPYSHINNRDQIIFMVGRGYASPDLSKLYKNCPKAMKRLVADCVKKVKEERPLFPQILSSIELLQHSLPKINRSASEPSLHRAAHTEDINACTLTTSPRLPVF
T1 sequence (P63104 whole entry partner): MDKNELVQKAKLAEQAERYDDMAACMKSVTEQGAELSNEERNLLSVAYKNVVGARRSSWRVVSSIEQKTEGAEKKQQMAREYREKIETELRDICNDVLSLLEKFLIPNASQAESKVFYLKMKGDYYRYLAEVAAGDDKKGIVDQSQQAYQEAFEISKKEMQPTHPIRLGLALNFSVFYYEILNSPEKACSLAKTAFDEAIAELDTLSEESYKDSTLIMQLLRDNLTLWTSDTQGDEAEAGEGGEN
How it was run: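 Full-length C-Raf carrying Y340E/Y341E, co-expressed with 14-3-3ζ in Sf9 cells, at approximately 4 nM, with approximately 10 nM biotinylated kinase-dead MEK1 (K97R) and 1 μM ATP, pH 7.5. Compound preincubated 60 min, reaction 1 hour at room temperature. Phospho-MEK read by AlphaScreen; IC50 by non-linear regression.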

b-Raf (V600E) = biological target: T2, b-Raf (V600E) (Homo sapiens, UniProt P15056, V600E); experiment: In vitro Raf activity determination (Alpha Screen, biotinylated kinase-dead MEK1 substrate), B-Raf; assay type: biochemical; settings: b-Raf (V600E) approximately 4 pM; ATP 10 μM; pre-incubation 60 minutes; reaction 3 hours at room temperature
T2 construct: made in house
T2 sequence (P15056 whole entry V600E): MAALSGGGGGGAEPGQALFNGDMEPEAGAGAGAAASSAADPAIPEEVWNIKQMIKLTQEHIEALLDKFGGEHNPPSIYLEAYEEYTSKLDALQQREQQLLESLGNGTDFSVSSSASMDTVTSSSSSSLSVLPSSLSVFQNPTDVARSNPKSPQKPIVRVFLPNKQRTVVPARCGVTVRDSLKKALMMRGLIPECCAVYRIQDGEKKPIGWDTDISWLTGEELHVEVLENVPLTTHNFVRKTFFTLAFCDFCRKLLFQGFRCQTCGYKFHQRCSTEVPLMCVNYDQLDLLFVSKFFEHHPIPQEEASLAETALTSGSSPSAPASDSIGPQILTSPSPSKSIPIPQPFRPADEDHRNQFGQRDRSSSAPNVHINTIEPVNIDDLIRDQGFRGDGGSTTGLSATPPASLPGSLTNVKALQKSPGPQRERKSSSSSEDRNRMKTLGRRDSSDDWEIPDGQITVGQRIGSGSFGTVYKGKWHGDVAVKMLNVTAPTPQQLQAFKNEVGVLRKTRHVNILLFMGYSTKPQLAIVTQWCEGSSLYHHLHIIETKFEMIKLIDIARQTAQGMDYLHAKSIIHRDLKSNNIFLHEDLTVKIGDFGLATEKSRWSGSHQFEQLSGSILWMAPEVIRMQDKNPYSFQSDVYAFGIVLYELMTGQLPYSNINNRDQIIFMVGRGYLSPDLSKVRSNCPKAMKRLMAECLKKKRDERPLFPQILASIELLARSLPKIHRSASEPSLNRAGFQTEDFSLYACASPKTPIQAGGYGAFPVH
How it was run: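 Activated b-Raf(V600E) (~4 pM) pre-incubated 60 min with compound and biotinylated kinase-dead (K97R) MEK1 (~10 nM), then reacted 3 h at room temperature with 10 μM ATP in 50 mM Tris pH 7.5, 15 mM MgCl2, 0.01% BSA, 1 mM DTT. Phospho-MEK detected by AlphaScreen; IC50 by non-linear regression.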

In the case of `CCn1cc(C(=O)Nc2cnc(C)c(-c3cnc(N4CC(C)(O)C4)c(C#N)c3)c2)cc(C(F)(F)F)c1=O` [Example 191, N-(5′-cyano-6′-(3-hydroxy-3-methylazetidin-1-yl)-2-methyl-[3,3′-bipyridin]-5-yl)-1-ethyl-6-oxo-5-(trifluoromethyl)-1,6-dihydropyridine-3-carboxamide], the IC50 (C-RAF) is reported as 5.21 nM and the IC50 (b-Raf (V600E)) is reported as 30.6 nM.
`CCC(F)(F)c1cc(C(=O)Nc2cnc(C)c(-c3cnc(N4CC(C)(O)C4)c(C#N)c3)c2)ccn1` [Example 192, N-(5′-cyano-6′-(3-hydroxy-3-methylazetidin-1-yl)-2-methyl-[3,3′-bipyridin]-5-yl)-2-(1,1-difluoropropyl) isonicotinamide] gave an IC50 (C-RAF) of 1.15 nM and an IC50 (b-Raf (V600E)) of 5.13 nM.
Work on `Cc1ncc(NC(=O)c2ccnc(C(C)(C)F)c2)cc1-c1cnc(N2CC(C)(O)C2)c(C#N)c1` [Example 193, N-(5′-cyano-6′-(3-hydroxy-3-methylazetidin-1-yl)-2-methyl-[3,3′-bipyridin]-5-yl)-2-(2-fluoropropan-2-yl)isonicotinamide] yielded an IC50 (C-RAF) of 1.75 nM and an IC50 (b-Raf (V600E)) of 7.91 nM.
For `Cc1ccc(NC(=O)c2cnnc(C(C)(C)F)c2)cc1-c1cnc(N2CC(C)(O)C2)c(C#N)c1` [Example 194, N-(3-(5-cyano-6-(3-hydroxy-3-methylazetidin-1-yl)pyridin-3-yl)-4-methylphenyl)-6-(2-fluoropropan-2-yl)pyridazine-4-carboxamide], the IC50 (C-RAF) was 0.285 nM and the IC50 (b-Raf (V600E)) was 1.53 nM.
In the case of `COCCNc1ncc(-c2cc(NC(=O)c3ccnc(C(F)F)c3)cnc2C)cc1C#N` [Example 196, N-(5′-cyano-6′-((2-methoxyethyl)amino)-2-methyl-[3,3′-bipyridin]-5-yl)-2-(difluoromethyl) isonicotinamide], the IC50 (C-RAF) is reported as 2.14 nM and the IC50 (b-Raf (V600E)) is reported as 16.1 nM.
For `COCCNc1ncc(-c2cc(NC(=O)c3ccnc(C4(C#N)CC4)c3)cnc2C)cc1C#N` [Example 197, N-(5′-cyano-6′-((2-methoxyethyl)amino)-2-methyl-[3,3′-bipyridin]-5-yl)-2-(1-cyanocyclopropyl) isonicotinamide], the IC50 (C-RAF) was 0.818 nM and the IC50 (b-Raf (V600E)) was 5.23 nM.
Work on `COCCNc1ncc(-c2cc(NC(=O)c3ccnc(C(C)(C)C#N)c3)cnc2C)cc1C#N` [Example 198, N-(5′-cyano-6′-((2-methoxyethyl)amino)-2-methyl-[3,3′-bipyridin]-5-yl)-2-(2-cyanopropan-2-yl)isonicotinamide] yielded an IC50 (C-RAF) of 4.06 nM and an IC50 (b-Raf (V600E)) of 13.4 nM.
In the case of `COCCNc1ncc(-c2cc(NC(=O)c3cccc(C(F)F)c3)cnc2C)cc1C#N` [Example 199, N-(5′-cyano-6′-((2-methoxyethyl)amino)-2-methyl-[3,3′-bipyridin]-5-yl)-3-(difluoromethyl) benzamide], the IC50 (C-RAF) is reported as 0.386 nM and the IC50 (b-Raf (V600E)) is reported as 2.62 nM.
Work on `Cc1ncc(NC(=O)c2cnnc(C3CC3)c2)cc1-c1cnc(NC2CCOCC2)c(C#N)c1` [Example 200, N-(5′-cyano-2-methyl-6′-((tetrahydro-2H-pyran-4-yl)amino)-[3,3′-bipyridin]-5-yl)-6-cyclopropylpyridazine-4-carboxamide] yielded an IC50 (C-RAF) of 2.38 nM and an IC50 (b-Raf (V600E)) of 15.2 nM.
Compound `COCCNc1ncc(-c2cc(NC(=O)c3cnnc(C(C)(C)C#N)c3)ccc2C)cc1C#N` [Example 201, N-(3-(5-cyano-6-((2-methoxyethyl)amino)pyridin-3-yl)-4-methylphenyl)-6-(2-cyanopropan-2-yl)pyridazine-4-carboxamide] has an IC50 (C-RAF) of 0.447 nM and an IC50 (b-Raf (V600E)) of 3.04 nM.
`COCCNc1ncc(-c2cc(NC(=O)c3cnnc(C(C)(C)C#N)c3)cnc2C)cc1C#N` [Example 202, N-(5′-cyano-6′-((2-methoxyethyl)amino)-2-methyl-[3,3′-bipyridin]-5-yl)-6-(2-cyanopropan-2-yl)pyridazine-4-carboxamide] showed an IC50 (C-RAF) of 4.82 nM and an IC50 (b-Raf (V600E)) of 32.6 nM.
In the case of `COCCNc1ncc(-c2cc(NC(=O)c3cnnc(C(F)(F)F)c3)cnc2C)cc1C#N` [Example 203, N-(5′-cyano-6′-((2-methoxyethyl)amino)-2-methyl-[3,3′-bipyridin]-5-yl)-6-(trifluoromethyl) pyridazine-4-carboxamide], the IC50 (C-RAF) is reported as 8.17 nM and the IC50 (b-Raf (V600E)) is reported as 48.2 nM.
For `Cc1ccc(NC(=O)c2cnnc(C(C)(C)C#N)c2)cc1-c1cnc(NC2CCOCC2)c(C#N)c1` [Example 204, N-(3-(5-cyano-6-((tetrahydro-2H-pyran-4-yl)amino)pyridin-3-yl)-4-methylphenyl)-6-(2-cyanopropan-2-yl)pyridazine-4-carboxamide], the IC50 (C-RAF) was 0.219 nM and the IC50 (b-Raf (V600E)) was 1.45 nM.
`Cc1ncc(NC(=O)c2cnnc(C(C)(C)C#N)c2)cc1-c1cnc(NC2CCOCC2)c(C#N)c1` [Example 205, N-(5′-cyano-2-methyl-6′-((tetrahydro-2H-pyran-4-yl)amino)-[3,3′-bipyridin]-5-yl)-6-(2-cyanopropan-2-yl)pyridazine-4-carboxamide] showed an IC50 (C-RAF) of 1.82 nM and an IC50 (b-Raf (V600E)) of 10.9 nM.
In the case of `Cc1ccc(NC(=O)c2cnnc(C(C)(C)C#N)c2)cc1-c1cnc(N2CCOCC2)c(C#N)c1` [Example 206, N-(3-(5-cyano-6-morpholinopyridin-3-yl)-4-methylphenyl) 6-(2-cyanopropan-2 yl)pyridazine-4-carboxamide], the IC50 (C-RAF) is reported as 0.199 nM and the IC50 (b-Raf (V600E)) is reported as 1.23 nM.
Compound `Cc1ncc(NC(=O)c2cnnc(C(C)(C)C#N)c2)cc1-c1cnc(N2CCOCC2)c(C#N)c1` [Example 207, N-(5′-cyano-2-methyl-6′-morpholino-[3,3′-bipyridin]-5-yl)-6-(2-cyanopropan-2-yl)pyridazine-4-carboxamide] has an IC50 (C-RAF) of 1.35 nM and an IC50 (b-Raf (V600E)) of 6.14 nM.
Compound `Cc1ccc(NC(=O)c2cnnc(C(F)(F)F)c2)cc1-c1cnc(N2CCOCC2)c(C#N)c1` [Example 208, N-(3-(5-cyano-6-morpholinopyridin-3-yl)-4-methylphenyl)-6-(trifluoromethyl) pyridazine-4-carboxamide] has an IC50 (C-RAF) of 0.0967 nM and an IC50 (b-Raf (V600E)) of 0.397 nM.
With `COCCNc1ncc(-c2cc(NC(=O)c3ccnc(C(C)(C)O)c3)ccc2C)cc1C#N` [Example 209, N-(3-(5-cyano-6-((2-methoxyethyl)amino)pyridin-3-yl)-4-methylphenyl)-2-(2-hydroxypropan-2-yl)isonicotinamide] the IC50 (C-RAF) was 0.777 nM and the IC50 (b-Raf (V600E)) was 4.17 nM.
With `COCCNc1ncc(-c2cc(NC(=O)c3ccnc(C(C)(C)O)c3)cnc2C)cc1C#N` [Example 210, N-(5′-cyano-6′-((2-methoxyethyl)amino)-2-methyl-[3,3′-bipyridin]-5-yl)-2-(2-hydroxypropan-2-yl)isonicotinamide] the IC50 (C-RAF) was 5.97 nM and the IC50 (b-Raf (V600E)) was 36 nM.
In the case of `Cc1ccc(NC(=O)c2cnnc(C(C)(C)C#N)c2)cc1-c1cnc(N2CCNCC2)c(C#N)c1` [Example 211, N-(3-(5-cyano-6-(piperazin-1-yl)pyridin-3-yl)-4-methylphenyl)-6-(2-cyanopropan-2-yl)pyridazine-4-carboxamide], the IC50 (C-RAF) is reported as 0.886 nM and the IC50 (b-Raf (V600E)) is reported as 3.07 nM.
With `Cc1ccc(NC(=O)c2ccnc(C(F)(F)F)c2)cc1-c1cnc(N2CC(C)(O)C2)c(C#N)c1` [Example 212, N-(3-(5-cyano-6-(3-hydroxy-3-methylazetidin-1-yl)pyridin-3-yl)-4-methylphenyl)-2-(trifluoromethyl) isonicotinamide] the IC50 (C-RAF) was 0.32 nM and the IC50 (b-Raf (V600E)) was 1.15 nM.
`Cc1ccc(NC(=O)c2cnnc(C(F)(F)F)c2)cc1-c1cnc(N2CC(C)(O)C2)c(C#N)c1` [Example 213] was tested, and the IC50 (C-RAF) was 1.78 nM and the IC50 (b-Raf (V600E)) was 8.79 nM.
With `Cc1ccc(NC(=O)c2cnnc(C(C)(C)C#N)c2)cc1-c1cnc(N2CC(C)(O)C2)c(C#N)c1` [Example 214, N-(3-(5-cyano-6-(3-hydroxy-3-methylazetidin-1-yl)pyridin-3-yl)-4-methylphenyl)-6-(2-cyanopropan-2-yl)pyridazine-4-carboxamide] the IC50 (C-RAF) was 0.741 nM and the IC50 (b-Raf (V600E)) was 4.72 nM.
With `Cc1ccc(NC(=O)c2ccnc(C(C)(C)O)c2)cc1-c1cnc(N2CC(C)(O)C2)c(C#N)c1` [Example 215, N-(3-(5-cyano-6-(3-hydroxy-3-methylazetidin-1-yl)pyridin-3-yl)-4-methylphenyl)-2-(2-hydroxypropan-2-yl)isonicotinamide] the IC50 (C-RAF) was 1.28 nM and the IC50 (b-Raf (V600E)) was 8.05 nM.
Compound `Cc1ccc(NC(=O)c2ccnc(C(F)F)c2)cc1-c1cnc(N2CC(C)(O)C2)c(C#N)c1` [Example 216, N-(3-(5-cyano-6-(3-hydroxy-3-methylazetidin-1-yl)pyridin-3-yl)-4-methylphenyl)-2-(difluoromethyl) isonicotinamide] has an IC50 (C-RAF) of 0.691 nM and an IC50 (b-Raf (V600E)) of 4.73 nM.
`Cc1ccc(NC(=O)c2ccnc(S(C)(=O)=O)c2)cc1-c1cnc(N2CC(C)(O)C2)c(C#N)c1` [Example 217, N-(3-(5-cyano-6-(3-hydroxy-3-methylazetidin-1-yl)pyridin-3-yl)-4-methylphenyl)-2-(methylsulfonyl) isonicotinamide] gave an IC50 (C-RAF) of 1.07 nM and an IC50 (b-Raf (V600E)) of 6.78 nM.
In the case of `Cc1ccc(NC(=O)c2cccc(S(C)(=O)=O)c2)cc1-c1cnc(N2CC(C)(O)C2)c(C#N)c1` [Example 218, N-(3-(5-cyano-6-(3-hydroxy-3-methylazetidin-1-yl)pyridin-3-yl)-4-methylphenyl)-3-(methylsulfonyl) benzamide], the IC50 (C-RAF) is reported as 0.617 nM and the IC50 (b-Raf (V600E)) is reported as 3.58 nM.
`Cc1ccc(NC(=O)c2ccnc(C3CC3)c2)cc1-c1cnc(N2CC(C)(O)C2)c(C#N)c1` [Example 219, N-(3-(5-cyano-6-(3-hydroxy-3-methylazetidin-1-yl)pyridin-3-yl)-4-methylphenyl)-2-cyclopropyl-isonicotinamide] gave an IC50 (C-RAF) of 0.171 nM and an IC50 (b-Raf (V600E)) of 1.31 nM.
